Data reported in patent US20160346291A1, “COMPOSITIONS AND THERAPEUTIC METHODS FOR ACCELERATED PLAQUE REGRESSION” (Resverlogix Corp, priority 2013, published 2016).

Tested on: ApoA-I mRNA
Test: ApoA-I mRNA quantitation in HepG2 cells (real-time PCR)
Type: cell-based
Set-up: key: Active: An active compound is one that causes a >15% increase in ApoA-I mRNA at a concentration less than or equal to 100 uM
Details: concentration less than or equal to 100 uM, fold induction relative to DMSO control
Experimental: At time of harvesting, the spent media was removed from the HepG2 cells and immediately placed on ice (for immediate use) or at −80° C. (for future use) in ApoA-I and albumin ELISAs. The cells remaining in the plate wells were rinsed in 200 μL PBS. PBS was carefully removed to avoid removing any loosely attached cells.
Once the PBS was removed, 85 μL cell lysis solution was added to the cells in each well and incubated for 5-10 min at room temperature, to allow for complete cell lysis and detachment. mRNA was then prepared using the “mRNA Catcher PLUS plate” from Invitrogen, according to the protocol supplied. After the last wash, as much wash buffer as possible was aspirated without allowing the wells to dry. Elution Buffer (E3, 80 μL) was then added to each well. mRNA was then eluted by incubating the mRNA Catcher PLUS plate with Elution Buffer for 5 min at 68° C. and then immediately placing the plate on ice.
The eluted mRNA was isolated and then used in a one-step real-time […]-PCR reaction, using components of the Ultra Sense Kit together with Applied Biosystems primer-probe mixes. Real-time PCR data was analyzed, using the Ct values, to determine the fold induction of each unknown sample, relative to the control (that is, relative to the control for each independent DMSO concentration).
The following compounds of Formula I were evaluated in this assay. An active compound is one that causes a >15% increase in ApoA-I mRNA at a concentration less than or equal to 100 uM.

COc1cc(OC)c2c(=O)[nH]c(-c3cc(C)c(OCCOCc4ccccc4)c(C)c3)nc2n1 [2-(4-(2-(benzyloxy)ethoxy)-3,5-dimethylphenyl)-5,7-dimethoxypyrido[2,3-d]pyrimidin-4(3H)-one]
Effect on ApoA-I mRNA levels: Inactive

CC(=O)Nc1ccc2nc(-c3cc(C)c(O)c(C)c3)[nH]c(=O)c2c1 [N-(2-(4-hydroxy-3,5-dimethylphenyl)-4-oxo-3,4-dihydroquinazolin-6-yl)acetamide]
Effect on ApoA-I mRNA levels: Active

COc1cc(OC)c2c(=O)[nH]c(-c3ccc(N4CCOCC4)cc3)nc2c1 [5,7-dimethoxy-2-(4-morpholinophenyl)quinazolin-4(3H)-one]
Effect on ApoA-I mRNA levels: Active

Cc1cc(-c2nc3ccccc3c(=O)[nH]2)cc(C)c1OCCN1CCOCC1 [2-(3,5-dimethyl-4-(2-morpholinoethoxy)phenyl)quinazolin-4(3H)-one]
Effect on ApoA-I mRNA levels: Active

CNC(=O)OCCOc1c(C)cc(-c2nc3cc(OC)cc(OC)c3c(=O)[nH]2)cc1C [2-(4-(5,7-Dimethoxy-4-oxo-3,4-dihydroquinazolin-2-yl)-2,6-dimethyl-phenoxy)ethyl methylcarbamate]
Effect on ApoA-I mRNA levels: Active

Cc1cc(C)c2c(=O)[nH]c(-c3cc(C)c(OCCO)c(C)c3)nc2c1 [2-(4-(2-hydroxyethoxy)-3,5-dimethylphenyl)-5,7-dimethylquinazolin-4(3H)-one]
Effect on ApoA-I mRNA levels: Active

COc1cc2nc(-c3ccc4c(c3)OCCO4)[nH]c(=O)c2cc1OC [2-(2,3-dihydrobenzo[b][1,4]dioxin-6-yl)-6,7-dimethoxyquinazolin-4(3H)-one]
Effect on ApoA-I mRNA levels: Active

Cc1cc(-c2cc3ccc(CN4CCOCC4)cc3c(=O)[nH]2)cc(C)c1O [3-(4-hydroxy-3,5-dimethylphenyl)-7-(morpholinomethyl)isoquinolin-1(2H)-one]
Effect on ApoA-I mRNA levels: Active

COc1cc(OC)c2c(=O)n(C)c(-c3cc(C)c(O)c(C)c3)cc2c1 [3-(4-hydroxy-3,5-dimethylphenyl)-6,8-dimethoxy-2-methylisoquinolin-1(2H)-one]
Effect on ApoA-I mRNA levels: Active

COc1cc2cc(-c3cc(C)c(O)c(C)c3)n(C)c(=O)c2c(OC)c1C [3-(4-hydroxy-3,5-dimethylphenyl)-6,8-dimethoxy-2,7-dimethylisoquinolin-1(2H)-one]
Effect on ApoA-I mRNA levels: Active

CCCNC(=O)OCCOc1c(C)cc(-c2nc3cc(OC)cc(OC)c3c(=O)[nH]2)cc1C [2-(4-(5,7-Dimethoxy-4-oxo-3,4-dihydroquinazolin-2-yl)-2,6-dimethyl-phenoxy)ethyl propylcarbamate]
Effect on ApoA-I mRNA levels: Active

COc1cc(OC)c2c(=O)[nH]c(-c3ccc(O)c(CCO)c3)nc2c1 [2-(4-hydroxy-3-(2-hydroxyethyl)phenyl)-5,7-dimethoxyquinazolin-4(3H)-one]
Effect on ApoA-I mRNA levels: Active

COc1cc(OC)c2c(=O)[nH]c(-c3cc(C)c(OCCN)c(C)c3)nc2c1 [2-(4-(2-aminoethoxy)-3,5-dimethylphenyl)-5,7-dimethoxyquinazolin-4(3H)-one]
Effect on ApoA-I mRNA levels: Active

CCOc1nc(-c2cc(C)c(O)c(C)c2)nc2cc(OC)cc(OC)c12 [4-(4-ethoxy-5,7-dimethoxyquinazolin-2-yl)-2,6-dimethylphenol]
Effect on ApoA-I mRNA levels: Inactive

COc1cc(OC)c2c(=O)[nH]c(-c3cc(C)c(OCC(=O)O)c(C)c3)nc2c1 [2-(4-(5,7-dimethoxy-4-oxo-3,4-dihydroquinazolin-2-yl)-2,6-dimethylphenoxy)acetic acid]
Effect on ApoA-I mRNA levels: Active

COc1ccc(S(=O)(=O)NCCOc2c(C)cc(-c3nc4cc(OC)cc(OC)c4c(=O)[nH]3)cc2C)cc1 [N-(2-(4-(5,7-dimethoxy-4-oxo-3,4-dihydroquinazolin-2-yl)-2,6-dimethylphenoxy)ethyl)-4-methoxybenzenesulfonamide]
Effect on ApoA-I mRNA levels: Active

COc1cc(OC)c2cnc(-c3cc(C)c(OCCN4CCOCC4)c(C)c3)cc2c1 [4-(2-(4-(6,8-dimethoxyisoquinolin-3-yl)-2,6-dimethylphenoxy)ethyl)morpholine]
Effect on ApoA-I mRNA levels: Active

COc1cc(O)c2c(=O)[nH]c(-c3cc(C)c(O)c(C)c3)nc2c1 [5-hydroxy-2-(4-hydroxy-3,5-dimethylphenyl)-7-methoxyquinazolin-4(3H)-one]
Effect on ApoA-I mRNA levels: Active

COc1cc(OC)c2c(=O)[nH]c(-c3cc(C)c(OCC(C)(C)O)c(C)c3)cc2c1 [3-(4-(2-hydroxy-2-methylpropoxy)-3,5-dimethylphenyl)-6,8-dimethoxyisoquinolin-1(2H)-one]
Effect on ApoA-I mRNA levels: Active

COc1cc(OC)c2c(=O)[nH]c(-c3ccc(O)c(C)c3)nc2c1 [2-(4-hydroxy-3-methylphenyl)-5,7-dimethoxyquinazolin-4(3H)-one]
Effect on ApoA-I mRNA levels: Active

COc1cc(OC)c2c(=O)[nH]c(-c3cc(C)c(OCCO)c(C)c3)nc2n1 [2-(4-(2-hydroxyethoxy)-3,5-dimethylphenyl)-5,7-dimethoxypyrido[2,3-d]pyrimidin-4(3H)-one]
Effect on ApoA-I mRNA levels: Active

Cl.Cl.Cl.Cl.N=C(N)NCCCC(N)C(=O)Oc1ccc(-c2cc3ccccc3cn2)cc1 (centres unmarked) [4-(Isoquinolin-3-yl)phenyl 2-amino-5-guanidinopentanoate tetrahydrochloride]
Effect on ApoA-I mRNA levels: Active

COc1cc(OC)c2c(=O)[nH]c(-c3ccccc3Cl)nc2c1 [2-(2-chlorophenyl)-5,7-dimethoxyquinazolin-4(3H)-one]
Effect on ApoA-I mRNA levels: Active

COc1cc(OC)c2c(=O)[nH]c(-c3cc(C(C)(C)C)c(O)c(C(C)(C)C)c3)nc2c1 [2-(3,5-di-tert-butyl-4-hydroxyphenyl)-5,7-dimethoxyquinazolin-4(3H)-one]
Effect on ApoA-I mRNA levels: Active

COc1cc(OC)c2c(=O)[nH]c(-c3cc(C)c(OCCNC(=O)Nc4ccccc4)c(C)c3)nc2c1 [1-(2-(4-(5,7-dimethoxy-4-oxo-3,4-dihydroquinazolin-2-yl)-2,6-dimethylphenoxy)ethyl)-3-phenylurea]
Effect on ApoA-I mRNA levels: Active

COc1cc(OC)c2c(=O)[nH]c(-c3ccc(O)cc3)cc2c1 [3-(4-hydroxyphenyl)-6,8-dimethoxyisoquinolin-1(2H)-one]
Effect on ApoA-I mRNA levels: Active

COc1cc(OC)cc(-c2nc3cc(OC)cc(OC)c3c(=O)[nH]2)c1 [2-(3,5-dimethoxyphenyl)-5,7-dimethoxyquinazolin-4(3H)-one]
Effect on ApoA-I mRNA levels: Active

COc1cc(OC)c2c(=O)[nH]c(-c3ccc(CN4CCN(C)CC4)cc3)nc2c1 [5,7-dimethoxy-2-(4-((4-methylpiperazin-1-yl)methyl)phenyl)quinazolin-4(3H)-one]
Effect on ApoA-I mRNA levels: Active

COc1cc(OC)c2c(=O)[nH]c(-c3cc(C)c(OCCN4CCCC4)c(C)c3)nc2c1 [2-(3,5-dimethyl-4-(2-(pyrrolidin-1-yl)ethoxy)phenyl)-5,7-dimethoxyquinazolin-4(3H)-one]
Effect on ApoA-I mRNA levels: Active

COc1cc(OC)c2c(=O)[nH]c(-c3cccc(-c4ccc(S(C)(=O)=O)cc4)n3)nc2c1 [5,7-dimethoxy-2-(6-(4-(methylsulfonyl)phenyl)pyridin-2-yl)quinazolin-4(3H)-one]
Effect on ApoA-I mRNA levels: Active

CNC(=O)c1ccccc1C(=O)NCCOc1c(C)cc(-c2nc3cc(OC)cc(OC)c3c(=O)[nH]2)cc1C [N1-(2-(4-(5,7-dimethoxy-4-oxo-3,4-dihydroquinazolin-2-yl)-2,6-dimethylphenoxy)ethyl)-N2-methylphthalamide]
Effect on ApoA-I mRNA levels: Active

COc1cc(O)nc2cc(-c3cc(C)c(O)c(C)c3)[nH]c(=O)c12 [2-hydroxy-7-(4-hydroxy-3,5-dimethylphenyl)-4-methoxy-1,6-naphthyridin-5(6H)-one]
Effect on ApoA-I mRNA levels: Active

COc1cc(OC)c2c(=O)[nH]c(-c3ccc(OCC(N)=O)cc3)nc2c1 [2-(4-(5,7-dimethoxy-4-oxo-3,4-dihydroquinazolin-2-yl)phenoxy)acetamide]
Effect on ApoA-I mRNA levels: Active

COc1cc(OC)c2c(=O)[nH]c(-c3cc(C)c(OCCNS(=O)(=O)c4ccc(Cl)cc4)c(C)c3)nc2c1 [4-chloro-N-(2-(4-(5,7-dimethoxy-4-oxo-3,4-dihydroquinazolin-2-yl)-2,6-dimethylphenoxy)ethyl)benzenesulfonamide]
Effect on ApoA-I mRNA levels: Active

COc1cc(OC)c2c(=O)[nH]c(-c3cc(C)c(OCc4ccccc4)c(C)c3)nc2c1 [2-(4-(benzyloxy)-3,5-dimethylphenyl)-5,7-dimethoxyquinazolin-4(3H)-one]
Effect on ApoA-I mRNA levels: Active

COc1cc2cc(-c3cc(C)c(O)c(C)c3)n(C)c(=O)c2c(OC)c1CN1CCOCC1 [3-(4-hydroxy-3,5-dimethylphenyl)-6,8-dimethoxy-2-methyl-7-(morpholinomethyl) isoquinolin-1(2H)-one]
Effect on ApoA-I mRNA levels: Active

COCCOc1c(C)cc(-c2nc3cc(OC)cc(OC)c3c(=O)[nH]2)cc1C [5,7-dimethoxy-2-(4-(2-methoxyethoxy)-3,5-dimethylphenyl)quinazolin-4(3H)-one]
Effect on ApoA-I mRNA levels: Active

COc1cc(OC)c2c(=O)[nH]c(-c3ccc(CCC(=O)O)cc3)nc2c1 [3-(4-(5,7-dimethoxy-4-oxo-3,4-dihydroquinazolin-2-yl)phenyl)propanoic acid]
Effect on ApoA-I mRNA levels: Active
